From US20260250318A1, “COMPOSITIONS AND METHODS FOR CROSSING THE BLOOD BRAIN BARRIER” (VOYAGER THERAPEUTICS, INC., priority 2022, published 2026)

How the values were obtained:
[1] = tested on: brains, heart, liver, muscle, and DRG of the NHPs; test: Maturation of TTM-001 and TTM-002 capsids, NGS enrichment in NHP tissues; type: in vivo; settings: relative to AAV9 control
Method in brief: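 Variants carry mutations within and flanking the loop IV peptide insert: positions 450–466 were triplet-randomized, while positions 449–466 received low-frequency point mutations. The combined pool went into two NHPs, and each peptide was scored by NGS enrichment ratio against AAV9.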

brain = test: Matured TTM-001 and TTM-002 variants, NGS enrichment in mouse brain; type: in vivo, mice; settings: relative to AAV9 control
[2] = NGS fold-enrichment of RNA, NHP brain
[3] = NGS fold-enrichment, DRG of NHPs
[4] = NGS fold-enrichment, NHP liver DNA
[5] = NGS fold-enrichment, NHP liver RNA
[6] = NGS fold-enrichment, NHP muscle
[7] = NGS fold-enrichment, RNA, brain of NHPs
[8] = NGS fold-enrichment, heart of NHPs
[9] = NGS fold-enrichment, liver DNA of NHPs
[10] = NGS fold-enrichment, liver RNA of NHPs
[11] = NGS fold-enrichment, muscle of NHPs
[12] = NGS fold-enrichment, brain of mice
[13] = NGS fold-enrichment, mouse brain
[14] = NGS fold-enrichment of matured AAV capsid variants, NHP brain, RNA

Sequence: KATNGSGSPHSKAQNHQT
- Fold Enrichment relative to AAV9, Brain (NHP) [1, 2]: 82.627 fold
- Fold Enrichment relative to AAV9, DRG (NHP) [1, 3]: 0.000 fold
- Fold Enrichment relative to AAV9, DRG (NHP) ([1]; NGS fold-enrichment, NHP DRG): 0.000 fold
- Fold Enrichment relative to AAV9, Heart (NHP) ([1]; NGS fold-enrichment, NHP heart): 0.176 fold
- Fold Enrichment relative to AAV9, Liver DNA (NHP) [1, 4]: 0.057 fold
- Fold Enrichment relative to AAV9, Liver RNA (NHP) [1, 5]: 0.155 fold
- Fold Enrichment relative to AAV9, Muscle (NHP) [1, 6]: 0.000 fold
- Fold Enrichment relative to AAV9, Brain (NHP) [1, 7]: 82.627 fold
- Fold Enrichment relative to AAV9, Heart (NHP) [1, 8]: 0.176 fold
- Fold Enrichment relative to AAV9, Liver DNA (NHP) [1, 9]: 0.057 fold
- Fold Enrichment relative to AAV9, Liver RNA (NHP) [1, 10]: 0.155 fold
- Fold Enrichment relative to AAV9, Muscle (NHP) [1, 11]: 0.000 fold
- Fold Enrichment relative to AAV9, Brain (Mouse) (brain; [12]): 66.207 fold
- Fold Enrichment relative to AAV9, Brain (Mouse) (brain; [13]): 66.207 fold

Sequence: KAVNGHDSPHKSVQNQQT
- Fold Enrichment relative to AAV9, Brain (NHP) [1, 2]: 81.051 fold
- Fold Enrichment relative to AAV9, DRG (NHP) ([1]; NGS fold-enrichment, NHP DRG): 0.448 fold
- Fold Enrichment relative to AAV9, Heart (NHP) ([1]; NGS fold-enrichment, NHP heart): 0.051 fold
- Fold Enrichment relative to AAV9, Liver DNA (NHP) [1, 4]: 0.091 fold
- Fold Enrichment relative to AAV9, Liver RNA (NHP) [1, 5]: 0.665 fold
- Fold Enrichment relative to AAV9, Muscle (NHP) [1, 6]: 0.000 fold
- Fold Enrichment relative to AAV9, Brain (Mouse) (brain; [13]): 11.288 fold

Sequence: KAVNVSGSPHSKAQNQQT
- Fold Enrichment relative to AAV9, Brain (NHP) [1, 14]: 54.586 fold
- Fold Enrichment relative to AAV9, DRG (NHP) ([1]; NHP DRG): 0.000 fold
- Fold Enrichment relative to AAV9, Heart (NHP) ([1]; NHP heart): 0.000 fold
- Fold Enrichment relative to AAV9, Liver DNA (NHP) ([1]; NHP liver, DNA): 0.023 fold
- Fold Enrichment relative to AAV9, Liver RNA (NHP) ([1]; NHP liver, RNA): 0.000 fold
- Fold Enrichment relative to AAV9, Muscle (NHP) ([1]; NHP muscle): 0.000 fold
- Fold Enrichment relative to AAV9, Brain (Mouse) (brain; mouse brain): 57.835 fold

Sequence: KEFVGSGSPHSKAQNQQT
- Fold Enrichment relative to AAV9, Brain (NHP) [1, 14]: 58.374 fold
- Fold Enrichment relative to AAV9, DRG (NHP) ([1]; NHP DRG): 0.000 fold
- Fold Enrichment relative to AAV9, Heart (NHP) ([1]; NHP heart): 0.046 fold
- Fold Enrichment relative to AAV9, Liver DNA (NHP) ([1]; NHP liver, DNA): 0.326 fold
- Fold Enrichment relative to AAV9, Liver RNA (NHP) ([1]; NHP liver, RNA): 0.088 fold
- Fold Enrichment relative to AAV9, Muscle (NHP) ([1]; NHP muscle): 0.000 fold
- Fold Enrichment relative to AAV9, Brain (Mouse) (brain; mouse brain): 128.675 fold

Sequence: KEINGRGSPHSKAQNQQT
- Fold Enrichment relative to AAV9, Brain (NHP) [1, 2]: 134.390 fold
- Fold Enrichment relative to AAV9, DRG (NHP) [1, 3]: 0.239 fold
- Fold Enrichment relative to AAV9, DRG (NHP) ([1]; NGS fold-enrichment, NHP DRG): 0.239 fold
- Fold Enrichment relative to AAV9, Heart (NHP) ([1]; NGS fold-enrichment, NHP heart): 0.000 fold
- Fold Enrichment relative to AAV9, Liver DNA (NHP) [1, 4]: 0.232 fold
- Fold Enrichment relative to AAV9, Liver RNA (NHP) [1, 5]: 0.000 fold
- Fold Enrichment relative to AAV9, Muscle (NHP) [1, 6]: 0.000 fold
- Fold Enrichment relative to AAV9, Brain (NHP) [1, 7]: 134.390 fold
- Fold Enrichment relative to AAV9, Heart (NHP) [1, 8]: 0.000 fold
- Fold Enrichment relative to AAV9, Liver DNA (NHP) [1, 9]: 0.232 fold
- Fold Enrichment relative to AAV9, Liver RNA (NHP) [1, 10]: 0.000 fold
- Fold Enrichment relative to AAV9, Muscle (NHP) [1, 11]: 0.000 fold
- Fold Enrichment relative to AAV9, Brain (Mouse) (brain; [12]): 52.311 fold
- Fold Enrichment relative to AAV9, Brain (Mouse) (brain; [13]): 52.311 fold

Sequence: KELHGSGSPHSKAQNQQT
- Fold Enrichment relative to AAV9, Brain (NHP) [1, 2]: 102.680 fold
- Fold Enrichment relative to AAV9, DRG (NHP) [1, 3]: 0.000 fold
- Fold Enrichment relative to AAV9, DRG (NHP) ([1]; NGS fold-enrichment, NHP DRG): 0.000 fold
- Fold Enrichment relative to AAV9, Heart (NHP) ([1]; NGS fold-enrichment, NHP heart): 0.000 fold
- Fold Enrichment relative to AAV9, Liver DNA (NHP) [1, 4]: 0.592 fold
- Fold Enrichment relative to AAV9, Liver RNA (NHP) [1, 5]: 1.634 fold
- Fold Enrichment relative to AAV9, Muscle (NHP) [1, 6]: 0.000 fold
- Fold Enrichment relative to AAV9, Brain (NHP) [1, 7]: 102.680 fold
- Fold Enrichment relative to AAV9, Heart (NHP) [1, 8]: 0.000 fold
- Fold Enrichment relative to AAV9, Liver DNA (NHP) [1, 9]: 0.592 fold
- Fold Enrichment relative to AAV9, Liver RNA (NHP) [1, 10]: 1.634 fold
- Fold Enrichment relative to AAV9, Muscle (NHP) [1, 11]: 0.000 fold
- Fold Enrichment relative to AAV9, Brain (Mouse) (brain; [12]): 96.554 fold
- Fold Enrichment relative to AAV9, Brain (Mouse) (brain; [13]): 96.554 fold

Sequence: KESDGSGSPHSKAQNQQT
- Fold Enrichment relative to AAV9, DRG (NHP) [1, 3]: 0.000 fold
- Fold Enrichment relative to AAV9, Brain (NHP) [1, 7]: 63.766 fold
- Fold Enrichment relative to AAV9, Heart (NHP) [1, 8]: 0.000 fold
- Fold Enrichment relative to AAV9, Liver DNA (NHP) [1, 9]: 0.146 fold
- Fold Enrichment relative to AAV9, Liver RNA (NHP) [1, 10]: 0.567 fold
- Fold Enrichment relative to AAV9, Muscle (NHP) [1, 11]: 0.000 fold
- Fold Enrichment relative to AAV9, Brain (Mouse) (brain; [12]): 115.231 fold

Sequence: KEVHGSGSPHSKAQNQQT
- Fold Enrichment relative to AAV9, DRG (NHP) [1, 3]: 0.000 fold
- Fold Enrichment relative to AAV9, Brain (NHP) [1, 7]: 67.901 fold
- Fold Enrichment relative to AAV9, Heart (NHP) [1, 8]: 0.000 fold
- Fold Enrichment relative to AAV9, Liver DNA (NHP) [1, 9]: 0.000 fold
- Fold Enrichment relative to AAV9, Liver RNA (NHP) [1, 10]: 0.727 fold
- Fold Enrichment relative to AAV9, Muscle (NHP) [1, 11]: 0.000 fold
- Fold Enrichment relative to AAV9, Brain (Mouse) (brain; [12]): 100.111 fold

Sequence: KEVQGSGSPHSKAQNQQT
- Fold Enrichment relative to AAV9, Brain (NHP) [1, 14]: 58.125 fold
- Fold Enrichment relative to AAV9, DRG (NHP) ([1]; NHP DRG): 0.000 fold
- Fold Enrichment relative to AAV9, Heart (NHP) ([1]; NHP heart): 0.000 fold
- Fold Enrichment relative to AAV9, Liver DNA (NHP) ([1]; NHP liver, DNA): 0.000 fold
- Fold Enrichment relative to AAV9, Liver RNA (NHP) ([1]; NHP liver, RNA): 0.657 fold
- Fold Enrichment relative to AAV9, Muscle (NHP) ([1]; NHP muscle): 0.000 fold
- Fold Enrichment relative to AAV9, Brain (Mouse) (brain; mouse brain): 168.220 fold

Sequence: KEVVGSGSPHSKAQNQQT
- Fold Enrichment relative to AAV9, Brain (NHP) [1, 14]: 56.371 fold
- Fold Enrichment relative to AAV9, DRG (NHP) ([1]; NHP DRG): 0.000 fold
- Fold Enrichment relative to AAV9, Heart (NHP) ([1]; NHP heart): 0.000 fold
- Fold Enrichment relative to AAV9, Liver DNA (NHP) ([1]; NHP liver, DNA): 0.323 fold
- Fold Enrichment relative to AAV9, Liver RNA (NHP) ([1]; NHP liver, RNA): 0.000 fold
- Fold Enrichment relative to AAV9, Muscle (NHP) ([1]; NHP muscle): 0.000 fold
- Fold Enrichment relative to AAV9, Brain (Mouse) (brain; mouse brain): 116.964 fold
